Data taken from ChEMBL document CHEMBL1649554, “Specific therapeutic schemes of omeprazole affect the orientation of Helicobacter pylori” (Antimicrob Agents Chemother, 2009).
Activity calls are given as the source filed them. The calls are words filed in the database; no cut-off is given here.

Key:
Helicobacter pylori [1] = experiment: Antibacterial activity against Helicobacter pylori SS1 infected in Mongolian gerbils assessed as bacterial disorientation in 0 to 15 um above the Juxtamucosal layer at 0.25 mg, ip administered as two doses of solvent measured after 90 mins post last dose (reference value: 4560+/-400 bacteria per nl of mucus); type: functional, organism-based
Helicobacter pylori [2] = experiment: Antibacterial activity against Helicobacter pylori SS1 infected in Mongolian gerbils assessed as bacterial density in mucus in central mucus layer at 0.25 mg, ip administered as two doses in 24 hrs dosing interval measured after 90 mins post last dose (reference value: 90+/-60 bacteria per nl of mucus); type: functional
Helicobacter pylori [3] = experiment: Antibacterial activity against Helicobacter pylori SS1 infected in Mongolian gerbils assessed as bacterial orientation in 15 to 25 um above the Juxtamucosal layer at 0.25 mg, ip administered as two subsequent doses in 8 hrs dosing interval; type: functional, organism-based
Helicobacter pylori [4] = experiment: Antibacterial activity against Helicobacter pylori SS1 infected in Mongolian gerbils assessed as bacterial density in mucus in 0 to 15 um above the Juxtamucosal layer at 0.25 mg, ip followed by second dose administered as solvent in 24 hrs dosing interval measured after 90 mins post last dose (reference value: 4560+/-400 bacteria per nl of mucus); type: functional
Helicobacter pylori [5] = experiment: Antibacterial activity against Helicobacter pylori SS1 infected in Mongolian gerbils assessed as bacterial orientation in 15 to 25 um above the Juxtamucosal layer at 35 ug/ml administered as single dose in 8 hrs dosing interval; type: functional, organism-based
Helicobacter pylori [6] = experiment: Antibacterial activity against Helicobacter pylori SS1 infected in Mongolian gerbils assessed as bacterial disorientation in central mucus layer at 20 uM, ip administered as single dose through dialysis measured after 90 mins post last dose; type: functional, organism-based
Helicobacter pylori [7] = experiment: Antibacterial activity against Helicobacter pylori SS1 infected in Mongolian gerbils assessed as bacterial disorientation in 15 to 25 um above the Juxtamucosal layer at 0.25 mg, ip administered as two doses in 24 hrs dosing interval measured after 90 mins post last dose; type: functional, organism-based
Helicobacter pylori [8] = experiment: Antibacterial activity against Helicobacter pylori SS1 infected in Mongolian gerbils assessed as bacterial density in mucus in central mucus layer at 0.25 mg, ip administered as two doses of solvent in 24 hrs dosing interval measured after 90 mins post last dose (reference value: 90+/-60 bacteria per nl of mucus); type: functional
Helicobacter pylori [9] = experiment: Antibacterial activity against Helicobacter pylori SS1 infected in Mongolian gerbils assessed as bacterial density in mucus in central mucus layer at 100 uM, ip administered as single dose through dialysis measured after 90 mins post last dose; type: functional
Helicobacter pylori [10] = experiment: Antibacterial activity against Helicobacter pylori SS1 infected in Mongolian gerbils assessed as bacterial disorientation in central mucus layer at 0.25 mg, ip followed by second dose administered as solvent in 24 hrs dosing interval measured after 90 mins post last dose; type: functional, organism-based
Helicobacter pylori [11] = experiment: Antibacterial activity against Helicobacter pylori SS1 infected in Mongolian gerbils assessed as bacterial disorientation in central mucus layer at 0.25 mg, ip administered as two doses in 24 hrs dosing interval measured after 90 mins post last dose; type: functional, organism-based
Helicobacter pylori [12] = experiment: Antibacterial activity against Helicobacter pylori SS1 infected in Mongolian gerbils assessed as bacterial disorientation in 0 to 15 um above the Juxtamucosal layer at 20 uM, ip administered as single dose through dialysis measured after 90 mins post last dose; type: functional, organism-based
Helicobacter pylori [13] = experiment: Antibacterial activity against Helicobacter pylori SS1 infected in Mongolian gerbils assessed as bacterial density in mucus in 0 to 15 um above the Juxtamucosal layer at 0.25 mg, ip administered as two doses in 8 hrs dosing interval measured after 90 mins post last dose (reference value: 4560+/-400 bacteria per nl of mucus); type: functional
Helicobacter pylori [14] = experiment: Antibacterial activity against Helicobacter pylori SS1 infected in Mongolian gerbils assessed as bacterial density in mucus in 15 to 25 um above the Juxtamucosal layer at 0.25 mg, ip administered as two doses in 8 hrs dosing interval measured after 90 mins post last dose (reference value: 2280+/-430 bacteria per nl of mucus); type: functional
Helicobacter pylori [15] = experiment: Antibacterial activity against Helicobacter pylori SS1 infected in Mongolian gerbils assessed as bacterial density in mucus in luminal mucus layer at 20 uM, ip administered as single dose through dialysis measured after 90 mins post last dose (reference value: 60+/-50 bacteria per nl of mucus); type: functional
Helicobacter pylori [16] = experiment: Antibacterial activity against Helicobacter pylori SS1 infected in Mongolian gerbils assessed as bacterial density in mucus in central mucus layer at 20 uM, ip administered as single dose through dialysis measured after 90 mins post last dose (reference value: 90+/-60 bacteria per nl of mucus); type: functional
Helicobacter pylori [17] = experiment: Antibacterial activity against Helicobacter pylori SS1 infected in Mongolian gerbils assessed as bacterial disorientation in 15 to 25 um above the Juxtamucosal layer at 0.25 mg, ip administered as two doses in 8 hrs dosing interval measured after 90 mins post last dose; type: functional, organism-based
Helicobacter pylori [18] = experiment: Antibacterial activity against Helicobacter pylori SS1 infected in Mongolian gerbils assessed as bacterial density in mucus in 15 to 25 um above the Juxtamucosal layer at 0.25 mg, ip administered as two doses in 24 hrs dosing interval measured after 90 mins post last dose (reference value: 2280+/-430 bacteria per nl of mucus); type: functional
Helicobacter pylori [19] = experiment: Antibacterial activity against Helicobacter pylori SS1 infected in Mongolian gerbils assessed as bacterial disorientation in 0 to 15 um above the Juxtamucosal layer at 0.25 mg, ip followed by second dose administered as solvent in 24 hrs dosing interval measured after 90 mins post last dose; type: functional, organism-based
Helicobacter pylori [20] = experiment: Antibacterial activity against Helicobacter pylori SS1 infected in Mongolian gerbils assessed as bacterial density in mucus in 15 to 25 um above the Juxtamucosal layer at 100 uM, ip administered as single dose through dialysis measured after 90 mins post last dose; type: functional
Helicobacter pylori [21] = experiment: Antibacterial activity against Helicobacter pylori SS1 infected in Mongolian gerbils assessed as bacterial disorientation in luminal mucus layer at 0.25 mg, ip administered as two doses in 24 hrs dosing interval measured after 90 mins post last dose; type: functional, organism-based
Helicobacter pylori [22] = experiment: Antibacterial activity against Helicobacter pylori SS1 infected in Mongolian gerbils assessed as bacterial disorientation in 0 to 15 um above the Juxtamucosal layer at 0.25 mg, ip administered as two doses in 8 hrs dosing interval measured after 90 mins post last dose; type: functional, organism-based
Helicobacter pylori [23] = experiment: Antibacterial activity against Helicobacter pylori SS1 infected in Mongolian gerbils assessed as bacterial orientation in 0 to 15 um above the Juxtamucosal layer at 35 ug/ml administered as single dose in 8 hrs dosing interval; type: functional, organism-based
Helicobacter pylori [24] = experiment: Antibacterial activity against Helicobacter pylori SS1 infected in Mongolian gerbils assessed as bacterial orientation in 0 to 15 um above the Juxtamucosal layer at 0.25 mg, ip administered as two subsequent doses in 8 hrs dosing interval; type: functional, organism-based
Helicobacter pylori [25] = experiment: Antibacterial activity against Helicobacter pylori SS1 infected in Mongolian gerbils assessed as bacterial disorientation in central layer at 0.25 mg, ip administered as two doses of solvent measured after 90 mins post last dose (reference value: 4560+/-400 bacteria per nl of mucus); type: functional, organism-based
Helicobacter pylori [26] = experiment: Antibacterial activity against Helicobacter pylori SS1 infected in Mongolian gerbils assessed as bacterial orientation in luminal mucus layer at 0.25 mg, ip administered as two subsequent doses in 8 hrs dosing interval; type: functional, organism-based

## COc1ccc2[nH]c([S+]([O-])Cc3ncc(C)c(OC)c3C)nc2c1 (stereo unspecified) [OMEPRAZOLE]
Helicobacter pylori [1]
  Activity: Active
Helicobacter pylori [2]
  Activity: 300 nL⁻¹
Helicobacter pylori [3]
  Activity: inactive
Helicobacter pylori [4]
  Activity: 4790 nL⁻¹
Helicobacter pylori [5]
  Activity: inactive
Helicobacter pylori [6]
  Activity: inactive
Helicobacter pylori [7]
  Activity: Active
Helicobacter pylori [8]
  Activity: 40 nL⁻¹
Helicobacter pylori [9]
  Activity: 60 nL⁻¹
Helicobacter pylori [10]
  Activity: inactive
Helicobacter pylori [11]
  Activity: inactive
Helicobacter pylori [12]
  Activity: Active
Helicobacter pylori [13]
  Activity: 4170 nL⁻¹
Helicobacter pylori [14]
  Activity: 1800 nL⁻¹
Helicobacter pylori [15]
  Activity: 50 nL⁻¹
Helicobacter pylori [16]
  Activity: 70 nL⁻¹
Helicobacter pylori [17]
  Activity: inactive
Helicobacter pylori [18]
  Activity: 2230 nL⁻¹
Helicobacter pylori [19]
  Activity: Active
Helicobacter pylori [20]
  Activity: 330 nL⁻¹
Helicobacter pylori [21]
  Activity: inactive
Helicobacter pylori [22]
  Activity: Active
Helicobacter pylori [23]
  Activity: inactive
Helicobacter pylori [24]
  Activity: inactive
Helicobacter pylori [25]
  Activity: inactive
Helicobacter pylori [26]
  Activity: inactive
